Measured values taken from patent publication US9943507B2, “Treatment of pancreatic and related cancers with 5-acyl-6,7-dihydrothieno[3,2-c]pyridines” (Memorial Sloan-Kettering Cancer Center, priority 2012, dated 2018).

Assays:
[1] = biological target: T1, Hhat (Homo sapiens, UniProt Q5VTY9); assay: In vitro Hhat activity assay with purified enzyme and ShhN recombinant protein (IC50); assay type: biochemical; conditions: saturating substrate; purified enzyme, 0.7 μM ShhN recombinant protein, 18 μM 125I-iodo-palmitoylCoA
T1 construct: expressed in transfected cells; host or cells: 293FT cells (P100 membrane fraction)
Protocol: Expression and purification of recombinant Shh were carried out as described in Buglino, J. A. and Resh, M. D. “Hhat is a palmitoylacyl transferase with specificity for N-palmitoylation of sonic hedgehog”. J. Biol. Chem. 283, 22076-22088 (2008) and Buglino, J. A. and Resh, M. D. “Identification of conserved regions and residues within Hedgehog acyltransferase critical for palmitoylation of Sonic Hedgehog”. PLoS One 5, e11195 (2010). N-terminally 6×His tagged human Shh 24-197 with an enterokinase cleavage site immediately upstream of residue 24 was amplified using full length Shh as a template. The purified PCR product was ligated in NcoI and BamHI cut PET19b (Novagen). C24S and C24A constructs were generated by site directed mutagenesis using the Quick Change mutagenesis kit. All mutations were confirmed by sequencing. […] Protein concentration was measured using the DC protein assay (BioRad). […]
HhatHAFlagHis was purified as follows. […] Protein concentrations were determined using the DC Protein Assay. The concentration of the final Flag eluate was determined from the absorbance at 280 nm using an extinction coefficient of 193045 cm^−1M^−1. […]

[2] = test system: AsPC1 (human pancreatic adenocarcinoma) cells; assay: Human pancreatic adenocarcinoma cell assay; assay type: cell-based; conditions: day six, FIG. 3
Protocol: Human pancreatic adenocarcinoma cell assay: 5000 AsPC1 (human pancreatic adenocarcinoma) cells were plated in each well of a 384-well black/clear-bottom tissue culture plate (Greiner Bio-One, Kremsmuenster, Austria), using Thermo Multi-Drop Combi dispenser. The plates were incubated at 37° C. for 24 h before compounds were dispensed using a Janus “Varispan” automated syringe pipette at 50 μM final concentration. High control (DMSO only) and low control (cell media only) rows were included in each plate. After 48 h incubation, Alamar Blue (Invitrogen) was added to each well in 1:100 ratio. 4 h later, cell viability was assessed by measuring fluorescence on a Perkin-Elmer EnVision plate reader.
Compound 13 was tested in the human pancreatic adenocarcinoma cell assay. The results are shown graphically in FIG. 3. At 10 μM it reduced the proliferation of human pancreatic cancer cells 50% at day six. At 20 μM it reduced the proliferation of human pancreatic cancer cells by 70% at day six.

[3] = biological target: T1, Hhat; assay: Hhat activity assay (SPA, P100 membranes from HA-Hhat transfected 293FT cells); assay type: biochemical; conditions: 12.5 μM compound, 125I-iodo-palmitoylCoA, Shh biotinylated peptide
Protocol: Hhat activity assay: Five μl of 10 mM MES, pH 6.5 buffer was dispensed within each well of a 384-well white/clear-bottom plate (Greiner Bio-One, Kremsmuenster, Austria) using a Thermo Multi-Drop Combi dispenser. […] Percent inhibition for each experimental point was determined by the formula: [(high control−compound)/(high control−low control)]*100.

T1 sequence (Q5VTY9 whole entry): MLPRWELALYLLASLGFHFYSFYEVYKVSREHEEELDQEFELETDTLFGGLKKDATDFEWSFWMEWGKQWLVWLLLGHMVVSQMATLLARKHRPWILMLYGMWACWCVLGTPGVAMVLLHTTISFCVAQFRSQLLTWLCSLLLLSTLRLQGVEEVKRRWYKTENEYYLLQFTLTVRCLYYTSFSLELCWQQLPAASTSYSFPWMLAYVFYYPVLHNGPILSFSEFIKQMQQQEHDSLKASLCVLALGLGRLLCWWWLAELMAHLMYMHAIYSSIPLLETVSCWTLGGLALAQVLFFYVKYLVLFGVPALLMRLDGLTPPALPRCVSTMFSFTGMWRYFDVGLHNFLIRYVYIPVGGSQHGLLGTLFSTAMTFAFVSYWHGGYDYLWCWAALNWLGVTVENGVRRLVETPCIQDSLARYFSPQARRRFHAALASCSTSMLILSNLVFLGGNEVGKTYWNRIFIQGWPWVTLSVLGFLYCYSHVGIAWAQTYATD

IC50 [1] [µM] | inhibition at 12.5 µM [3] [%] | SMILES | reduction of proliferation of human pancreatic cancer cells ([2]; 10 μM) [%] | reduction of proliferation of human pancreatic cancer cells ([2]; 20 μM) [%]
0.68 | – | CCC(C)CNCC(=O)N1CCc2sccc2C1c1cccc(C)n1 (centres unmarked) [Example 14] | – | –
2.05 | – | CCC(C)CNCC(=O)N1CCc2sccc2C1c1cccc(C)c1 (centres unmarked) [Example 13] | 50 | 70
– | 95.6 | C=CCNCC(=O)N1CCc2sccc2C1c1ccccc1 (centres unmarked) [Example 5] | – | –
